Earlier results, collected in patent US20250352536A1, “NEURORESTORATION COMPOSITIONS IMPLEMENTING MULTIPLE NEUROPLASTICITY INDUCING MECHANISMS OF ACTION” (Neuro-Innovators, Inc., priority 2022, published 2025).

Test system: recurrent stroke
Conditions: compared with aspirin, previous clinical trials

For O=C1CCc2cc(OCCCCc3nnnn3C3CCCCC3)ccc2N1 [cilostazol, Cilostazol], the hemorrhagic events is given as “fewer hemorrhagic events” and the “incidence of recurrent stroke” value is given as “significantly reduce the incidence of recurrent stroke”.
